In US5468771A, “Cholesterol lowering compound” (Merck & Co., Inc., priority 1994, dated 1995):

Target: T1, squalene synthetase (Homo sapiens, UniProt P37268)
T1 construct: The HepG2 enzyme preparation was centrifuged at 34,000 rpm to separate the cytosol and microsomal enzymes; host or cells: HepG2 (human hepatoblastoma), resuspended 34,000 rpm pellet of sonicated cells
T1 sequence (P37268 1-417): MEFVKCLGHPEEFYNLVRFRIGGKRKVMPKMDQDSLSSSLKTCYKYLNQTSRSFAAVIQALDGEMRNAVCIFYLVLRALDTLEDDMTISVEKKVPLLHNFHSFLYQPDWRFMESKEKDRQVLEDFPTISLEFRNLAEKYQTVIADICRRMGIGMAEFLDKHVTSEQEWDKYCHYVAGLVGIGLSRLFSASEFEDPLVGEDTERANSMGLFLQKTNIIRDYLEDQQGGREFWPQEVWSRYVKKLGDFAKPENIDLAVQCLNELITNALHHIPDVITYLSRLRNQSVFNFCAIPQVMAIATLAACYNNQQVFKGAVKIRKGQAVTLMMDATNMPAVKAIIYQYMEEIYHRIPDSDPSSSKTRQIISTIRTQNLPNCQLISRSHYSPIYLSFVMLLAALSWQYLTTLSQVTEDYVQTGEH
Assay: Squalene synthetase assay (in vitro, human HepG2 cell enzyme, 3H-farnesyl pyrophosphate substrate)
Format: biochemical
Conditions: 30° C., 20 minutes
Method: The intrinsic squalene synthetase inhibitory activity of the compound of this invention was measured by the ill vitro protocol described below:
PREPARATION OF HUMAN HepG2 cell ENZYME
1. SOURCE: HEPG2 CELL LINE(Liver, hepatoblastoma, Human) ATCC No. HB 8065
2. CELL GROWTH AND MAINTENANCE
Culture Medium: Minimum essential medium (MEM) with non-essential amino acids, sodium pyruvate, and 10% fetal bovine serum. The medium was changed twice weekly. […] The growth medium is prepared as listed below. […]
Subculture Procedure: Remove medium, wash with PBS, add fresh trypsin (0.25%)-EDTA (0.02%) with Hank's Balanced Salt solution and let flask stand for a minute and remove the trypsin solution . Incubate flask at 37° C. until cells detached. Add fresh medium, disperse and dispense cells into new flasks. Subcultivation ratio: 1:6.
PREPARATION of Delipidated Serum: Fetal calf serum(100 ml) and CAB-O-Sil (2 grams) stir overnight at 4° C. and centrifuge at 16,000 rpm for 5 hrs. […]
For each reaction, 55 μl of buffer mixture was taken with 5 μl of an inhibitor solution in MeOH and 10 μl of diluted enzyme (1 to 1536 as described in the enzyme preparation, the final protein concentration of enzyme in the assay is 1.2 μg per ml.). […] 400 μl of heptane layer was then removed into a […] and mixed with 2.5 ml of scintillation fluid and the radioactivity was determined by liquid scintillation counting. […]

For `C=C(CC[C@]12O[C@H](C(=O)O)[C@@](O)(C(=O)O)[C@](C(=O)O)(O1)[C@H](OC(=O)/C=C/C(C)CC(C)C(C)O)[C@H]2O)[C@@H](OC(C)=O)C(C)Cc1ccccc1` (stereo partly drawn) [compound of this invention, (1S,3S,4S,5S,6R,7R)-1-[(4S)-acetoxy-3-methylene-5-methyl-6-phenyl]hexyl-4,6,7-trihydroxy-6-0-(4,6-dimethyl-7-hydroxy-2-octenoyl)-2,8-dioxabicyclo [3.2.1]octane-3,4,5-tricarboxylic acid], the IC50 (3 μM 3H-farnesyl pyrophosphate, estimated, with a dose related inhibition, read-out: IC50 against squalene synthetase) was roughly 0.091 nM and the inhibition at 0.0018 µM (tested at a concentration of 1.8 nM) was 99%.
